This note sets out measurements from ChEMBL document CHEMBL3991601, “The target landscape of clinical kinase drugs” (Science, 2017).

Experiment [1] deals with Adenylate kinase 2, mitochondrial (Homo sapiens, UniProt P54819).
For experiment [2], the target named is Serine/threonine-protein kinase 16 (Homo sapiens, UniProt O75716).
In experiment [3] the target is T1, Glycine--tRNA ligase (Homo sapiens, UniProt P41250).
T1 sequence (P41250 whole entry): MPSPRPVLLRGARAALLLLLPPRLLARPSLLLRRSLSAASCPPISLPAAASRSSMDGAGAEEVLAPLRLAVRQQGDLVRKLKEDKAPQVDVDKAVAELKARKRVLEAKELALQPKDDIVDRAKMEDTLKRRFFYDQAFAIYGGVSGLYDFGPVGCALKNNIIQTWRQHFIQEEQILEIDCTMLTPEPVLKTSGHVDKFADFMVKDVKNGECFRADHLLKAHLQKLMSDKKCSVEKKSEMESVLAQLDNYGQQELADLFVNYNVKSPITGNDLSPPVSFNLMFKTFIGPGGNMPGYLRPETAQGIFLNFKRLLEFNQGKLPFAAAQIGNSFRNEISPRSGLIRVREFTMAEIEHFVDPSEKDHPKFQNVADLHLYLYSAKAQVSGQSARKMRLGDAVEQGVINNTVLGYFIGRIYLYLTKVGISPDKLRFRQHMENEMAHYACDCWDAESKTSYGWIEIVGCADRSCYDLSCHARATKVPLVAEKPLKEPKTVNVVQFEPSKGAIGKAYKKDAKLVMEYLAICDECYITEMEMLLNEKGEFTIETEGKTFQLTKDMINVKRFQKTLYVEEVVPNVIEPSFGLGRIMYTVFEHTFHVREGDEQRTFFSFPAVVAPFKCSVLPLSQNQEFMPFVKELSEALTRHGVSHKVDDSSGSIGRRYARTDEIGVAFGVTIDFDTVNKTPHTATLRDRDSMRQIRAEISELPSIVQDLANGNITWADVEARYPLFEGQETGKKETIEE

Experiment [4] concerns the target T2, Cyclin-G-associated kinase (Homo sapiens, UniProt O14976).
T2 sequence (O14976 whole entry): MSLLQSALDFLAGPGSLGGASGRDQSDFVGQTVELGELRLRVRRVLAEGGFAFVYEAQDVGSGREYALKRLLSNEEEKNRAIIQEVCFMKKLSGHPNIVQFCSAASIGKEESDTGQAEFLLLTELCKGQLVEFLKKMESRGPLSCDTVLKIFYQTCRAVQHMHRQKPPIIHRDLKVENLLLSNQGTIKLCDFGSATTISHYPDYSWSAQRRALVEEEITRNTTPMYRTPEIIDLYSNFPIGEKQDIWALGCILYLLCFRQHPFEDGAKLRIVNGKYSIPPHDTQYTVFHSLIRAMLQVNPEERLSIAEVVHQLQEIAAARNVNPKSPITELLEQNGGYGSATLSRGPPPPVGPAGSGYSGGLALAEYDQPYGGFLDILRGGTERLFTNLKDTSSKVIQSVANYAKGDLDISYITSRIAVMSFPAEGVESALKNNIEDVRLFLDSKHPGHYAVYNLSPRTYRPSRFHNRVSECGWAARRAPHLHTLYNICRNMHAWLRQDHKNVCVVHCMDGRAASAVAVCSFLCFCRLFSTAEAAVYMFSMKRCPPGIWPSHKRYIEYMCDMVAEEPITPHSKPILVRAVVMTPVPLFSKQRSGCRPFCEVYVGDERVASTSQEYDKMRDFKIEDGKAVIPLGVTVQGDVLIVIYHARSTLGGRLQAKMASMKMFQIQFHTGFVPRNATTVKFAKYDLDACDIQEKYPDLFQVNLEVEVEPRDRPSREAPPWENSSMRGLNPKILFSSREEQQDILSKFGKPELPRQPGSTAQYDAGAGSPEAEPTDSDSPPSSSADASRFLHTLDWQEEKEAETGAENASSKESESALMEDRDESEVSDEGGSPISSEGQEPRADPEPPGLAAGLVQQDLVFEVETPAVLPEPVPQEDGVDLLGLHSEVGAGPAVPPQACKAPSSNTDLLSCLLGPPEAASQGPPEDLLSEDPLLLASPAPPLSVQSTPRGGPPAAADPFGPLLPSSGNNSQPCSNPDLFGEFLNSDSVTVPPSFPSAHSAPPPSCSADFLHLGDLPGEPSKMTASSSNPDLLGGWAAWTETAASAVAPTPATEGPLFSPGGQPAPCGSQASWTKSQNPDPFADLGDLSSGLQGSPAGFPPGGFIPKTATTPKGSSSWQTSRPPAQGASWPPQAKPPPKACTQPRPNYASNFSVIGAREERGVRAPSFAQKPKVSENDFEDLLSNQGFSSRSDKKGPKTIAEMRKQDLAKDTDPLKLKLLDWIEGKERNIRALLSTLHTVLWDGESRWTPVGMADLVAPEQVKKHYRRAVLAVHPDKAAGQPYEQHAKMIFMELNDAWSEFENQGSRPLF

In experiment [5] the target is cAMP-dependent protein kinase catalytic subunit gamma (Homo sapiens, UniProt P22612).
cAMP-dependent protein kinase catalytic subunit gamma, sequence (P22612 whole entry): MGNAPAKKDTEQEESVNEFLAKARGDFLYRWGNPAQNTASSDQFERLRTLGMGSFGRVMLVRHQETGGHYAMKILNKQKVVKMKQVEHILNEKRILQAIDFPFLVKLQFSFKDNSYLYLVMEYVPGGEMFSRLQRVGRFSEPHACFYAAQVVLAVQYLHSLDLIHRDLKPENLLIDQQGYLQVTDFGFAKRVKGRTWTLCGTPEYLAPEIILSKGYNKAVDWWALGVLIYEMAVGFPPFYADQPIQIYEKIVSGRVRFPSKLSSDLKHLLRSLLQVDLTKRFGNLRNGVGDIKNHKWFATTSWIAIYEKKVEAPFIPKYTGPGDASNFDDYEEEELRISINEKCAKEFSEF
Experiment [6] has as its target Calcium/calmodulin-dependent protein kinase kinase 2 (Homo sapiens, UniProt Q96RR4).
The target of experiment [7] is T3, STE20-related kinase adapter protein alpha (Homo sapiens, UniProt Q7RTN6).
T3 sequence (Q7RTN6 whole entry): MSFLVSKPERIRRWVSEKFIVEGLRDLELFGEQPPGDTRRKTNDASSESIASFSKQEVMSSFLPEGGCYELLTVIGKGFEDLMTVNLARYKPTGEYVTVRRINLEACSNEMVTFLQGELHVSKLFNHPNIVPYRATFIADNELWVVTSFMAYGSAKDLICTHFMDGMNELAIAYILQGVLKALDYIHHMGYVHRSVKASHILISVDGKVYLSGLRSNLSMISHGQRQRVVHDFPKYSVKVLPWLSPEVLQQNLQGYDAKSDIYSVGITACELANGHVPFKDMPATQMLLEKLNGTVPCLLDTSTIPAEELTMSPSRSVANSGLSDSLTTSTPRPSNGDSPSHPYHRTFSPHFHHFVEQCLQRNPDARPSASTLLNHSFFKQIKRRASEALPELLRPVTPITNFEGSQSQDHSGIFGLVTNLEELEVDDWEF

Experiment [8] has as its target Ribosomal protein S6 kinase alpha-3 (Homo sapiens, UniProt P51812).
Experiment [9] concerns the target Serine/threonine-protein kinase/endoribonuclease IRE1 (Homo sapiens, UniProt O75460).

The source made the active and inactive calls. Cut-off read from the data, not from the text of the source, for most assays here: actives have a measured Kd and inactives only a lower limit.
Note: in the data inactive means no Kd found up to 30 µM.

Calcium/calmodulin-dependent protein kinase kinase 2, sequence (Q96RR4 whole entry): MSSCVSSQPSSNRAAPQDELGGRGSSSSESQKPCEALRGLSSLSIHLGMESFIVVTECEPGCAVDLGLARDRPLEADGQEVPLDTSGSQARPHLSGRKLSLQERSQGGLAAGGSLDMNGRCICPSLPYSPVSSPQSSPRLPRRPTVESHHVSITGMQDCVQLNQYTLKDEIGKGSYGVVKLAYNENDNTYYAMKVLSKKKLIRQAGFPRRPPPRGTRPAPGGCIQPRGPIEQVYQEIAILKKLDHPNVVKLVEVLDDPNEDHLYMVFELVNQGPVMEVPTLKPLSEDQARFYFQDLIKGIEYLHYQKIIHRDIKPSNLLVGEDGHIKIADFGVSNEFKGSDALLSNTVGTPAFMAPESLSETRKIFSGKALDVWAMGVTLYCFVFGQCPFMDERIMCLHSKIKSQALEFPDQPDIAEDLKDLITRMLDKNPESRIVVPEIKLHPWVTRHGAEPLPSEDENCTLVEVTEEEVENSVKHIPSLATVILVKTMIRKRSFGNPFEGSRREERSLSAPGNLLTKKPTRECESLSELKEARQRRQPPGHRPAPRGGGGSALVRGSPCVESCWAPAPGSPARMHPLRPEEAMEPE
Ribosomal protein S6 kinase alpha-3, sequence (P51812 whole entry): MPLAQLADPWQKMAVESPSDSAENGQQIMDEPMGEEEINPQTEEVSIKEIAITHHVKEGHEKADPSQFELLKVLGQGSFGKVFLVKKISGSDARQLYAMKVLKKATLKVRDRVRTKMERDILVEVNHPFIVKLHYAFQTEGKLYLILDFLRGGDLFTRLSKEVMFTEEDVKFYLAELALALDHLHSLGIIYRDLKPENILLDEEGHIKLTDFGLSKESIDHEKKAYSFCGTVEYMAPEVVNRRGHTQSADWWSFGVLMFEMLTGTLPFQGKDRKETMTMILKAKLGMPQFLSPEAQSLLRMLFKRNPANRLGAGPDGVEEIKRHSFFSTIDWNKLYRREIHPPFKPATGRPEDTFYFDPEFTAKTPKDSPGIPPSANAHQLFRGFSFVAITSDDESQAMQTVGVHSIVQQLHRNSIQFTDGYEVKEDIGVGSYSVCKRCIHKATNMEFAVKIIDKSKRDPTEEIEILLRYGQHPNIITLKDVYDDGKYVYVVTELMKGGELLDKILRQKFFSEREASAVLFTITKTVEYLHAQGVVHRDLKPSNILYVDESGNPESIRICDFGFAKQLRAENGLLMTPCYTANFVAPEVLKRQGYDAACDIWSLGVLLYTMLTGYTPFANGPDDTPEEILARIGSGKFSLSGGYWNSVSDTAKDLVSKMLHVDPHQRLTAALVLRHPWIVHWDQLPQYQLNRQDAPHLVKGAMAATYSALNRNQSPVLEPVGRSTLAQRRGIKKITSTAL
Serine/threonine-protein kinase/endoribonuclease IRE1, sequence (O75460 whole entry): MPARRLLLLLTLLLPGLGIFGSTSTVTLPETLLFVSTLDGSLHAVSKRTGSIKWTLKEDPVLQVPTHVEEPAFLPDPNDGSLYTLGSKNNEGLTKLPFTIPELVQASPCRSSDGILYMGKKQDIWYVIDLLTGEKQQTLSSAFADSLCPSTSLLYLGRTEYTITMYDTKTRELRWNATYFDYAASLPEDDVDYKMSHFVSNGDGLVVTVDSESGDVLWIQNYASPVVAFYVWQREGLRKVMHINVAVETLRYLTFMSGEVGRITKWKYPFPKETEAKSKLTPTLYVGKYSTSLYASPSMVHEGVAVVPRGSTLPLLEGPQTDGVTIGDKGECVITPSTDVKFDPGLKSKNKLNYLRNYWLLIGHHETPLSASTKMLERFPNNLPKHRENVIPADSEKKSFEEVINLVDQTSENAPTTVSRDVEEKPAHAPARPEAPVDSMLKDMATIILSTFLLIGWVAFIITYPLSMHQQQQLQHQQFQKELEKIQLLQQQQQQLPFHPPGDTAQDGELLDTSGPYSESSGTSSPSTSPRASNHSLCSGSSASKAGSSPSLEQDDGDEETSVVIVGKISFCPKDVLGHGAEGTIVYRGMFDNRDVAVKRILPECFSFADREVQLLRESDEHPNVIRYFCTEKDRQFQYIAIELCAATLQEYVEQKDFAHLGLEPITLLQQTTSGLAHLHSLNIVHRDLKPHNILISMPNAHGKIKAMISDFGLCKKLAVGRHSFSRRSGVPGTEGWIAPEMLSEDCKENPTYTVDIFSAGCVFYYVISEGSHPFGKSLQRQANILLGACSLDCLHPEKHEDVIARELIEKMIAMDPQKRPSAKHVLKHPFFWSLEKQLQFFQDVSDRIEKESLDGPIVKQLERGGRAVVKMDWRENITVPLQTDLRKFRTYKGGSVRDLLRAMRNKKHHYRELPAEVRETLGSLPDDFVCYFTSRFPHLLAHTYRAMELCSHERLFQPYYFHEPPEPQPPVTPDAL
Serine/threonine-protein kinase 16, sequence (O75716 whole entry): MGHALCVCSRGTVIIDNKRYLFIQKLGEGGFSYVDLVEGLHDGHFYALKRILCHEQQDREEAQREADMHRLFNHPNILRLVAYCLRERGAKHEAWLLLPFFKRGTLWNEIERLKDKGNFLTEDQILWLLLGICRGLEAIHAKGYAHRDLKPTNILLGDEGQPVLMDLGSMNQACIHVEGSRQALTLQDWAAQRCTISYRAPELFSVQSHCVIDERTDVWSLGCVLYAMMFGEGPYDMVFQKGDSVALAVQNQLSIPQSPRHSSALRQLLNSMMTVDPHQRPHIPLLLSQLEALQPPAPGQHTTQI

Regarding `COc1ncc(-c2ccc3nccc(-c4ccnnc4)c3c2)cc1NS(=O)(=O)c1ccc(F)cc1F` [OMIPALISIB], the Kd in [1], in experiment [2], in experiment [3], in [4], in experiment [5] and in experiment [6] was > 30 µM (inactive) throughout. The Kd in experiment [7], in experiment [8] and in [9] was > 30 µM (inactive) throughout.
Take `CCCCCCCCCCCCCCCCCCOP(=O)([O-])OC1CC[N+](C)(C)CC1` [PERIFOSINE]: the Kd in experiment [1], in experiment [2], in experiment [3], in [4], in experiment [5] and in [6] was > 30 µM (inactive) each time. In addition, the Kd in experiment [7], in [8] and in [9] was > 30 µM (inactive) throughout.
For `Cc1nc(Nc2n[nH]c3c2CN(C(=O)N[C@H](CN(C)C)c2ccccc2)C3(C)C)c2sccc2n1` [PF-03758309], the Kd in experiment [1] was > 30 µM (inactive); in [2] it was 5.45 µM (active); in experiment [3] it was > 30 µM (inactive); in experiment [4], 1.95 µM (active); in experiment [5], 0.066 µM (active); in experiment [6], 2.86 µM (active). For the same molecule, the Kd is > 30 µM (inactive) in experiment [7], 0.1 µM (active) in experiment [8] and > 30 µM (inactive) in experiment [9].
Consider `Cc1cnc(NC(=O)Nc2cc(Br)c(C)cc2OC[C@@H]2CNCCO2)cn1` [RABUSERTIB], for which the Kd in [1], in experiment [2], in experiment [3], in [4], in [5] and in experiment [6] was > 30 µM (inactive) in each case. Also, the Kd in [7], in experiment [8] and in experiment [9] was > 30 µM (inactive) in each case.
`CO[C@H]1C[C@@H]2CC[C@@H](C)[C@@](O)(O2)C(=O)C(=O)N2CCCC[C@H]2C(=O)O[C@H]([C@H](C)C[C@@H]2CC[C@@H](OP(C)(C)=O)[C@H](OC)C2)CC(=O)[C@H](C)/C=C(\C)[C@@H](O)[C@@H](OC)C(=O)[C@H](C)C[C@H](C)/C=C/C=C/C=C/1C` [RIDAFOROLIMUS]: the Kd in [1], in experiment [2], in experiment [3], in [4], in [5] and in experiment [6] was > 30 µM (inactive) throughout. Also, the Kd in experiment [7], in [8] and in experiment [9] was > 30 µM (inactive) in each case.
Regarding `N#CC1(c2ccc(NC(=O)c3cccnc3NCc3ccncc3)cc2)CCCC1` [RIVOCERANIB], the Kd in experiment [1], in experiment [2], in experiment [3], in [4], in experiment [5] and in experiment [6] was > 30 µM (inactive) in each case. The Kd in experiment [7], in experiment [8] and in experiment [9] was > 30 µM (inactive) in each case.
As for `O=c1[nH]ccc2cc(OC3CCNCC3)ccc12` [SAR-407899 FREE BASE], the Kd in [1], in [2], in [3], in experiment [4], in experiment [5] and in experiment [6] was > 30 µM (inactive) in each case. The Kd in experiment [7], in experiment [8] and in [9] was > 30 µM (inactive) each time.

As usually defined, the Kd is a measure of binding affinity in units of concentration.
